Measured values reported in patent US10314843B2, “Combinations for the treatment of neoplasms using quiescent cell targeting and inhibitors of mitosis” (Felicitex Therapeutics, Inc., priority 2016, dated 2019).

How the values were obtained:
SW620 cells [1] = assay: FACS cell cycle distribution by DNA content (propidium iodide), SW620 cells in FBS- media; assay type: cell-based; settings: 24 hours in FBS- media, AZ191 2.5, 5, 10 μM, Compound I-7 1.25, 2.5, 5 μM
Experimental: Cell cultures were seeded into 6-well plates at 3×10^5-6×10^5 cells/well; the plated number of cells depended on cell size and rate of proliferation, aiming for approximately 50% confluency. After seeding, the cells were allowed to attach for 24 hours while incubated at 37° C. in a humidified 5% CO2 atmosphere, and then treated with compounds for desired amount of time (usually 24 hours) incubating under same conditions. Then the cells were harvested by trypsinization, pooled with the floating cells, washed in PBS, and fixed in 70% ice-cold ethanol overnight. […] […] The complete protocol and composition of buffers are described in the literature (Darzynkiewicz Z, Juan G, and Srour E F (2004) Differential Staining of DNA and RNA (2004). Current Protocols in Cytometry, Chapter 7:Unit 7.3).
The SW620 cells were cultured and treated as described in Example 1. For propidium iodide (PI) staining, manufacturer's protocol supplied with the Guava Cell Cycle Reagent for Flow Cytometry (EMD Millipore) was followed. The measurements were performed with Guava PCA-96 flow cytometer (EMD Millipore) using the green laser for excitation at 535 nm and monitoring emission at 617 nm.
The SW620 cells were cultured, treated, and analyzed as described in Examples 1. […]

DMS273 cells = assay: FACS cell cycle distribution (Acridine Orange), DMS273 cells; assay type: cell-based; settings: FBS+ media, 24 hours
From the text: (§1) The following cell lines were obtained from ATCC and cultured according to the ATCC recommendations: DMS273—small cell lung cancer cell line; H1975—non-small cell lung cancer cell line harboring L858R and T790M mutations in EGFR TK; A549—a non-small cell lung cancer cell line with wild type EGFR; LNCap—prostate cancer cell line; SW620—colon cancer cell line; MiaPaCa2—pancreatic cancer cell line; PANC1—pancreatic cancer cell line; OVCAR3—ovarian cancer cell line; SK-OV-3—ovarian cancer cell line.
(§2) Cell cultures were seeded into 6-well plates at 3×10^5-6×10^5 cells/well; the plated number of cells depended on cell size and rate of proliferation, aiming for approximately 50% confluency. After seeding, the cells were allowed to attach for 24 hours while incubated at 37° C. in a humidified 5% CO2 atmosphere, and then treated with compounds for desired amount of time (usually 24 hours) incubating under same conditions. Then the cells were harvested by trypsinization, pooled with the floating cells, washed in PBS, and fixed in 70% ice-cold ethanol overnight. For Acridine Orange (AO) staining, fixed cells were washed once with ice-cold PBS, re-suspended in 100 μL PBS, followed by addition of 200 μL of permeabilizing solution and 600 μL AO staining solution. The measurements were performed with Guava easyCyte HT flow cytometer (EMD Millipore) using the blue laser for excitation at 488 nm, monitoring emission of the AO-DNA complex at 526 nm and AO-RNA complex at 650 nm. The complete protocol and composition of buffers are described in the literature (Darzynkiewicz Z, Juan G, and Srour E F (2004) Differential Staining of DNA and RNA (2004). Current Protocols in Cytometry, Chapter 7:Unit 7.3).

SW620 cells [2] = assay: FACS cell cycle distribution (Acridine Orange), SW620 cells; assay type: cell-based; settings: combination of Compound I-7 (4 μM) with paclitaxel (2 nM), FBS+ media, 24 hours
From the text: as §1, §2

quiescent cancer cells = settings: in vitro; reported by Ewton et al. 2011; cited from earlier work
[3] = combination of Compound I-7 (4 μM) with vincristine (1.1 nM)
[4] = combination of Compound I-7 (4 μM) with vinorelbine (8.1 nM)
[5] = combination of Compound I-7 with paclitaxel

SMILES | fraction of cells in quiescent state (G0), based on fraction of cells in G0+G1 phase (SW620 cells [1]) | cytotoxicity (fraction of apoptotic cells, sub-G0 population) (DMS273 cells; [3]) | fraction of cells in G0 (DMS273 cells; [3]) | cytotoxicity (fraction of apoptotic cells, sub-G0 population) (DMS273 cells; [4]) | fraction of cells in G0 (DMS273 cells; [4]) | cytotoxicity (fraction of apoptotic cells, sub-G0 population) (DMS273 cells; [5]) | fraction of cells in G0 (DMS273 cells; [5]) | cytotoxicity (fraction of apoptotic cells, sub-G0 population) (SW620 cells [2]) | fraction of cells in G0 (SW620 cells [2]) | effectiveness against quiescent cancer cells (quiescent cancer cells)
COc1cc(N2CCN(C)CC2)ccc1Nc1nccc(-c2cn(C)c3cnccc23)n1 [AZ191] | no decrease in fraction of cells in quiescent state (G0) | – | – | – | – | – | – | – | – | –
CCOC(=N)c1nc2ccc3ncnc(Nc4cc(F)c(F)cc4Cl)c3c2s1 [Compound I-7] | significant decrease in fraction of cells in quiescent state (G0) | significantly higher than that of vincristine alone | significant reduction of the fraction of cells in G0 | significantly higher than that of vinorelbine alone | significant reduction of the fraction of cells in G0 | significantly higher than that of paclitaxel alone | significant reduction of the fraction of cells in G0 | significantly higher than that of paclitaxel alone | significant reduction of the fraction of cells in G0 | –
COc1ncc2cc(C(=O)Nc3cc(C(=O)NCc4cccc(Cl)c4)ccc3Cl)c(=O)[nH]c2n1 [TC-S 7004] | – | – | – | – | – | – | – | – | – | effective against quiescent cancer cells in vitro
